Experimental data from patent US6737383B1, “Herbicidal oxadiazolidines” (priority 1999, dated 2004).

Columns and labels:
bedstraw = assay: Test B pre/postemergence bedstraw; assay type: in vivo, Galium aparine
Procedure, shortened: (§1)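 Herbicidal effect was estimated by eye on a ten-point control scale after plants spent twelve to sixteen days in a greenhouse following soil or foliar treatment. Foliar sprays targeted plants at one to four leaves; all doses were formulated in a non-phytotoxic solvent with surfactant.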

blackgrass = assay: Test B pre/postemergence blackgrass; assay type: in vivo, Alopecurus myosuroides
Procedure, shortened: as §1

surinam grass = assay: Test B pre/postemergence surinam grass; assay type: in vivo, Brachiaria decumbens
Procedure, shortened: as §1

corn = assay: Test B pre/postemergence corn; assay type: in vivo, Zea mays
Procedure, shortened: as §1

crabgrass = assay: Test B pre/postemergence crabgrass; assay type: in vivo, Digitaria sanguinalis
Procedure, shortened: as §1

pigweed = assay: Test B pre/postemergence pigweed; assay type: in vivo, Amaranthus retroflexus
Procedure, shortened: as §1

rape = assay: Test B pre/postemergence rape; assay type: in vivo, Brassica napus
Procedure, shortened: as §1

soybean = assay: Test B pre/postemergence soybean; assay type: in vivo, Glycine max
Procedure, shortened: as §1

sugar beet = assay: Test B pre/postemergence sugar beet; assay type: in vivo, Beta vulgaris
Procedure, shortened: as §1

velvetleaf = assay: Test B pre/postemergence velvetleaf; assay type: in vivo, Abutilon theophrasti
Procedure, shortened: as §1

wheat = assay: Test B pre/postemergence wheat; assay type: in vivo, Triticum aestivum
Procedure, shortened: as §1

wild oat = assay: Test B pre/postemergence wild oat; assay type: in vivo, Avena fatua
Procedure, shortened: as §1

purple nutsedge = assay: Test B pre/postemergence purple nutsedge; assay type: in vivo, Cyperus rotundus
Procedure, shortened: as §1

rice = assay: Test B flood test rice; assay type: in vivo, Oryza sativa
Procedure, shortened: (§2)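 Each value is a visual injury score relative to controls, with 10 meaning complete control and 0 no effect. Evaluation took place twelve to sixteen days after the 2-leaf-stage plants were treated and kept in the greenhouse.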

smallflower flatsedge = assay: Test B flood test smallflower flatsedge; assay type: in vivo, Cyperus difformis
Procedure, shortened: as §2

duck salad = assay: Test B flood test duck salad; assay type: in vivo, Heteranthera limosa
Procedure, shortened: as §2

[1] = Preemergence, Rate 62 g/ha, scale of 0 to 10 where 0 is no effect and 10 is complete control
[2] = Preemergence, Rate 250 g/ha, scale of 0 to 10 where 0 is no effect and 10 is complete control
[3] = Preemergence, Rate 500 g/ha, scale of 0 to 10 where 0 is no effect and 10 is complete control
[4] = Rate 62 g/ha, Postemergence, scale of 0 to 10 where 0 is no effect and 10 is complete control
[5] = Rate 125 g/ha, Postemergence, scale 0 to 10
[6] = Rate 125 g/ha, Preemergence, scale of 0 to 10 where 0 is no effect and 10 is complete control
[7] = Rate 500 g/ha, Postemergence, scale 0 to 10, 0 no effect, 10 complete control
[8] = Rate 62 g/ha, headed Pre-emergence (flood test species), scale 0 to 10 (0 no effect, 10 complete control)
[9] = Rate 125 g/ha, Pre-emergence, flood test species, scale 0 to 10 where 0 is no effect and 10 is complete control
[10] = Rate 250 g/ha, Pre-emergence, flood-test species, scale 0 to 10, 0 is no effect, 10 is complete control
[11] = Rate 500 g/ha, Pre-emergence, flood test species, scale 0 to 10 (0 no effect, 10 complete control)

Compound: Cc1cc(C)c(-n2c(=O)on(C(=O)N(c3ccc(F)cc3)C(C)C)c2=O)c(Br)c1 [Compound 224]
- Bedstraw plant response rating (bedstraw; [1]): 0
- Bedstraw plant response rating (bedstraw; [2]): 0
- Plant response rating, Bedstraw (bedstraw; [3]): 0
- Bedstraw plant response rating (bedstraw; [4]): 3
- Bedstraw plant response rating (bedstraw; [5]): 3
- Bedstraw plant response rating (bedstraw; [6]): 0
- Plant response rating (0 to 10; 0 is no effect, 10 is complete control), Bedstraw (bedstraw; Rate 250 g/ha, Postemergence): 4
- Bedstraw plant response rating (bedstraw; [7]): 4
- Blackgrass plant response rating (blackgrass; [1]): 2
- Blackgrass plant response rating (blackgrass; [2]): 3
- Plant response rating, Blackgrass (blackgrass; [3]): 5
- Blackgrass plant response rating (blackgrass; [4]): 0
- Blackgrass plant response rating (blackgrass; [5]): 0
- Blackgrass plant response rating (blackgrass; [6]): 2
- Plant response rating (0 to 10; 0 is no effect, 10 is complete control), Blackgrass (blackgrass; Rate 250 g/ha, Postemergence): 3
- Blackgrass plant response rating (blackgrass; [7]): 4
- B. signalgrass plant response rating (surinam grass; [1]): 0
- B. signalgrass plant response rating (surinam grass; Preemergence, Rate 250 g/ha, scale 0 to 10, 0 is no effect, 10 is complete control): 4
- Plant response rating, B. signalgrass (surinam grass; [3]): 4
- B. signalgrass plant response rating (surinam grass; [4]): 0
- B. signalgrass plant response rating (surinam grass; Rate 125 g/ha, Postemergence, scale 0 (no effect) to 10 (complete control)): 0
- B. signalgrass plant response rating (surinam grass; [6]): 3
- Plant response rating (0 to 10; 0 is no effect, 10 is complete control), B. signalgrass (surinam grass; Rate 250 g/ha, Postemergence): 0
- B. signalgrass plant response rating (surinam grass; [7]): 0
- Corn plant response rating (corn; [1]): 0
- Corn plant response rating (corn; [2]): 0
- Plant response rating, Corn (corn; [3]): 0
- Corn plant response rating (corn; [4]): 0
- Corn plant response rating (corn; [5]): 0
- Corn plant response rating (corn; [6]): 0
- Plant response rating (0 to 10; 0 is no effect, 10 is complete control), Corn (corn; Rate 250 g/ha, Postemergence): 0
- Corn plant response rating (corn; [7]): 0
- Crabgrass plant response rating (crabgrass; [1]): 2
- Crabgrass plant response rating (crabgrass; [2]): 9
- Plant response rating, Crabgrass (crabgrass; [3]): 10
- Crabgrass plant response rating (crabgrass; [4]): 0
- Crabgrass plant response rating (crabgrass; [5]): 0
- Crabgrass plant response rating (crabgrass; [6]): 5
- Plant response rating (0 to 10; 0 is no effect, 10 is complete control), Crabgrass (crabgrass; Rate 250 g/ha, Postemergence): 3
- Crabgrass plant response rating (crabgrass; [7]): 0
- Redroot pigweed plant response rating (pigweed; [1]): 0
- Redroot pigweed plant response rating (pigweed; [2]): 0
- Plant response rating, Redroot pigweed (pigweed; [3]): 4
- Redroot pigweed plant response rating (pigweed; [4]): 0
- Redroot pigweed plant response rating (pigweed; [5]): 2
- Redroot pigweed plant response rating (pigweed; [6]): 0
- Plant response rating (0 to 10; 0 is no effect, 10 is complete control), Redroot pigweed (pigweed; Rate 250 g/ha, Postemergence): 4
- Redroot pigweed plant response rating (pigweed; [7]): 7
- Rape plant response rating (rape; [1]): 0
- Rape plant response rating (rape; [2]): 0
- Plant response rating, Rape (rape; [3]): 0
- Rape plant response rating (rape; [4]): 0
- Rape plant response rating (rape; [5]): 0
- Rape plant response rating (rape; [6]): 0
- Plant response rating (0 to 10; 0 is no effect, 10 is complete control), Rape (rape; Rate 250 g/ha, Postemergence): 0
- Rape plant response rating (rape; [7]): 0
- Soybean plant response rating (soybean; [1]): 0
- Soybean plant response rating (soybean; [2]): 0
- Plant response rating, Soybean (soybean; [3]): 0
- Soybean plant response rating (soybean; [4]): 2
- Soybean plant response rating (soybean; [5]): 3
- Soybean plant response rating (soybean; [6]): 0
- Plant response rating (0 to 10; 0 is no effect, 10 is complete control), Soybean (soybean; Rate 250 g/ha, Postemergence): 4
- Soybean plant response rating (soybean; [7]): 2
- Sugarbeets plant response rating (sugar beet; [1]): 0
- Sugarbeets plant response rating (sugar beet; [2]): 0
- Plant response rating, Sugarbeets (sugar beet; [3]): 0
- Sugarbeets plant response rating (sugar beet; [4]): 1
- Sugarbeets plant response rating (sugar beet; [5]): 2
- Sugarbeets plant response rating (sugar beet; [6]): 0
- Plant response rating (0 to 10; 0 is no effect, 10 is complete control), Sugarbeets (sugar beet; Rate 250 g/ha, Postemergence): 4
- Sugarbeets plant response rating (sugar beet; [7]): 4
- Velvetleaf plant response rating (velvetleaf; [1]): 0
- Velvetleaf plant response rating (velvetleaf; [2]): 0
- Plant response rating, Velvetleaf (velvetleaf; [3]): 0
- Velvetleaf plant response rating (velvetleaf; [4]): 0
- Velvetleaf plant response rating (velvetleaf; [5]): 0
- Velvetleaf plant response rating (velvetleaf; [6]): 0
- Plant response rating (0 to 10; 0 is no effect, 10 is complete control), Velvetleaf (velvetleaf; Rate 250 g/ha, Postemergence): 0
- Velvetleaf plant response rating (velvetleaf; [7]): 4
- Wheat plant response rating (wheat; [1]): 0
- Wheat plant response rating (wheat; [2]): 0
- Plant response rating, Wheat (wheat; [3]): 0
- Wheat plant response rating (wheat; [4]): 0
- Wheat plant response rating (wheat; [5]): 0
- Wheat plant response rating (wheat; [6]): 0
- Plant response rating (0 to 10; 0 is no effect, 10 is complete control), Wheat (wheat; Rate 250 g/ha, Postemergence): 0
- Wheat plant response rating (wheat; [7]): 0
- Wild oats plant response rating (wild oat; [1]): 0
- Wild oats plant response rating (wild oat; [2]): 0
- Plant response rating, Wild oats (wild oat; [3]): 2
- Wild oats plant response rating (wild oat; [4]): 0
- Wild oats plant response rating (wild oat; [5]): 0
- Wild oats plant response rating (wild oat; [6]): 0
- Plant response rating (0 to 10; 0 is no effect, 10 is complete control), Wild oats (wild oat; Rate 250 g/ha, Postemergence): 0
- Wild oats plant response rating (wild oat; [7]): 0
- Nutsedge plant response rating (purple nutsedge; [1]): 0
- Nutsedge plant response rating (purple nutsedge; [4]): 0
- Nutsedge plant response rating (purple nutsedge; [5]): 0
- Plant response rating (0 to 10; 0 is no effect, 10 is complete control), Nutsedge (purple nutsedge; Rate 250 g/ha, Postemergence): 0
- Nutsedge plant response rating (purple nutsedge; [7]): 0
- Rice plant response rating (rice; [8]): 0
- Rice plant response rating (rice; [9]): 0
- Rice plant response rating (rice; [10]): 0
- Rice plant response rating (rice; [11]): 0
- S. Flatsedge plant response rating (smallflower flatsedge; [8]): 0
- S. Flatsedge plant response rating (smallflower flatsedge; [9]): 0
- S. Flatsedge plant response rating (smallflower flatsedge; [10]): 0
- S. Flatsedge plant response rating (smallflower flatsedge; [11]): 0
- Ducksalad plant response rating (duck salad; [8]): 0
- Ducksalad plant response rating (duck salad; [9]): 0
- Ducksalad plant response rating (duck salad; [10]): 0
- Ducksalad plant response rating (duck salad; [11]): 0
